What was measured:
Assay in all cases: relative viability (nuclei count vs DMSO), 5 days (fraction); higher = more cells survive
Adavosertib + Tozasertib = compound: C=CCn1c(=O)c2cnc(Nc3ccc(N4CCN(C)CC4)cc3)nc2n1-c1cccc(C(C)(C)O)n1 [Adavosertib] + Cc1cc(Nc2cc(N3CCN(C)CC3)nc(Sc3ccc(NC(=O)C4CC4)cc3)n2)n[nH]1 [Tozasertib] (partner 0.1 µM)
How it was run: (§1)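 Lung cancer cell lines, seeded in 1536-well plates, were treated the following day by pin tool with a single drug or with five library-drug doses (not always all listed) in √10 steps on top of a fixed anchor-drug dose. Cells were fixed and nuclei stained in one step after 5 days, and nuclei were counted. Relative viability is the nuclei count for treated wells divided by that for vehicle wells, reported as medians of duplicate plates.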

Nelarabine + Navitoclax = compound: COc1nc(N)nc2c1ncn2[C@@H]1O[C@H](CO)[C@@H](O)[C@@H]1O [Nelarabine] + CC1(C)CCC(c2ccc(Cl)cc2)=C(CN2CCN(c3ccc(C(=O)NS(=O)(=O)c4ccc(N[C@H](CCN5CCOCC5)CSc5ccccc5)c(S(=O)(=O)C(F)(F)F)c4)cc3)CC2)C1 [Navitoclax] (partner 0.5 µM)
How it was run: as §1

Nelarabine + Crizotinib = compound: COc1nc(N)nc2c1ncn2[C@@H]1O[C@H](CO)[C@@H](O)[C@@H]1O [Nelarabine] + C[C@@H](Oc1cc(-c2cnn(C3CCNCC3)c2)cnc1N)c1c(Cl)ccc(F)c1Cl [Crizotinib] (partner 1 µM)
How it was run: as §1

Nelarabine + Pemetrexed = compound: COc1nc(N)nc2c1ncn2[C@@H]1O[C@H](CO)[C@@H](O)[C@@H]1O [Nelarabine] + Nc1nc2[nH]cc(CCc3ccc(C(=O)N[C@@H](CCC(=O)O)C(=O)O)cc3)c2c(=O)[nH]1 [Pemetrexed] (partner 0.2 µM)
How it was run: as §1

Cell Line	relative viability (Adavosertib + Tozasertib; first compound 0.01 µM)	relative viability (Adavosertib + Tozasertib; first compound 0.03162 µM)	relative viability (Adavosertib + Tozasertib; first compound 0.1 µM)	relative viability (Adavosertib + Tozasertib; first compound 0.3162 µM)	relative viability (Nelarabine + Navitoclax; first compound 0.01 µM)	relative viability (Nelarabine + Navitoclax; first compound 0.03162 µM)	relative viability (Nelarabine + Navitoclax; first compound 0.1 µM)	relative viability (Nelarabine + Navitoclax; first compound 0.3162 µM)	relative viability (Nelarabine + Navitoclax; first compound 1 µM)	relative viability (Nelarabine + Crizotinib; first compound 0.01 µM)	relative viability (Nelarabine + Crizotinib; first compound 0.03162 µM)	relative viability (Nelarabine + Crizotinib; first compound 0.1 µM)	relative viability (Nelarabine + Crizotinib; first compound 0.3162 µM)	relative viability (Nelarabine + Crizotinib; first compound 1 µM)	relative viability (Nelarabine + Pemetrexed; first compound 0.01 µM)	relative viability (Nelarabine + Pemetrexed; first compound 0.03162 µM)	relative viability (Nelarabine + Pemetrexed; first compound 0.1 µM)	relative viability (Nelarabine + Pemetrexed; first compound 0.3162 µM)	relative viability (Nelarabine + Pemetrexed; first compound 1 µM)
RERF-LC-KJ	0.555	0.627	0.577	0.668	0.859	1.12	0.901	1.08	0.783	0.871	0.954	0.82	0.846	0.902	0.477	0.424	0.458	0.489	0.49
NCI-H2228	0.276	0.277	0.249	0.204	1.3	1.11		1.33	0.722	0.414	0.371		0.351	0.436	0.342	0.346	0.269	0.374	0.4
HCC-15	0.385	0.409	0.481	0.444	0.794	0.633	0.686	0.724	0.705	1.01	0.782	0.86	0.97	0.887	0.233	0.242	0.218	0.212	0.217
EKVX	0.424	0.451	0.436	0.469	1.14	0.897	0.856	1.08	0.982	1.16	0.83	0.894	1.41	0.979	0.431	0.436	0.417	0.506	0.46
NCI-H2347	0.476	0.674	0.718	0.511	0.955	0.799	0.782	0.782	0.939	0.812	0.547	0.654	0.649	0.833	0.423	0.425	0.427	0.447	0.397
NCI-H1944	0.227	0.241	0.23	0.269	1.02	0.964	1.01	0.937	0.968	1.12	1.06	1.16	1.08	1.02	0.659	0.584	0.589	0.617	0.61
SK-MES-1	0.898	0.929	0.92	0.285	1.36	1.55	1.13	1.09	1.29	1.07	0.922	0.961	1.05	1.1	1.17	0.951	0.957	1.03	1.07
ChaGo-K-1	0.228	0.243	0.229	0.228	1.03	1.02	1.48	0.936	1.07	1.11	1.01	1.32	1.23	1.17	0.242	0.249	0.261	0.258	0.252
NCI-H596	1.03	0.826	1.02	0.93	0.986	1.13	0.959	1.04	0.994	0.948	1.15	0.96	1.04	1.12	0.504	0.517	0.574	0.492	0.491

From the supplement of paper PMC10307832
